# Experimental data published in patent US20070154567A1, “Use of mercury to treat cancer” (priority 2006, published 2007).
# Test system: non-operable neck tumor of unknown origin and metastasis in the lungs
# Assay: Oral inorganic mercury (II) treatment of a pet English Setter: blood data and clinical follow-up
# Assay type: in vivo, dog
# Design: Anion Gap / MCV / MCH / MCHC / Neutrophils, absolute / Lymphocytes, absolute / Monocytes, absolute / Eosinophils, absolute: unit not given here
# Experimental: A 10 years old female English Setter was diagnosed with a non-operable neck tumor of unknown origin and metastasis in the lungs.
# The dog completed 130-day inorganic mercury (II) treatment that consisted of 58 days of the first treatment course followed by 20 days of an interval period, and the 52-day second treatment course. The formulation contained 1 mM mercury acetate in 20 mM sodium acetate buffer, pH 4.5, with 100 mM sucrose and 150 mM sodium chloride additives. It was introduced orally to the dog three times a day at 0.5 micromole Hg^2+/kg/day. At the start of the treatment, the dog was in poor health condition: was easily tired, had difficulty to swallow, heavy breathing due to lung metastasis. The tumor was easily palpated at the neck. […] These changes were correlated with reduction in ALP levels (Days 5, 22, 40, 65).
# During the second treatment course the progression of the disease was slowed down, but not to the degree observed during the first treatment course. The treatment was stopped at Day 128, and the dog was euthanized 2-3 weeks later.
smiles,measurement,setting,value
"CC(=O)[O-].CC(=O)[O-].[Hg+2] [inorganic mercury (II), mercury acetate]",ALT (SGPT),Day 5,84 U/L
same,AST (SGOT),Day 5,22 U/L
same,Albumin,Day 5,3.3 g/dL
same,Albumin/Globulin Ratio,Day 5,1.1
same,Alkaline Phosphatase (ALP),Day 5,204 U/L
same,Amylase,Day 5,771 U/L
same,Anion Gap,Day 5,26
same,BUN,Day 5,39 mg/dL
same,BUN/Creatinine Ratio,Day 5,43.3
same,CPK,Day 5,84 U/L
same,Calcium,Day 5,11.7 mg/dL
same,Chloride,Day 5,113 mE/L
same,Cholesterol,Day 5,269 mg/dL
same,Creatinine,Day 5,0.9 mg/dL
same,Direct Billirubin,Day 5,0 mg/dL
same,"Eosinophils, (%)",Day 5,4%
same,"Eosinophils, absolute",Day 5,576
same,GGT,Day 5,2 U/L
same,Globulin,Day 5,2.9 g/dL
same,Glucose,Day 5,116 mg/dL
same,Hematocrit,Day 5,41.8%
same,Hemoglobin,Day 5,14.5 g/dL
same,Indirect Billirubin,Day 5,0.2 mg/dL
same,Lipase,Day 5,799 U/L
same,"Lymphocytes, (%)",Day 5,48%
same,"Lymphocytes, absolute",Day 5,6912
same,MCH,Day 5,24.5
same,MCHC,Day 5,34.7
same,MCV,Day 5,71
same,"Monocytes, (%)",Day 5,6%
same,"Monocytes, absolute",Day 5,864
same,Na/K ratio,Day 5,32
same,"Neutrophils, (%)",Day 5,41%
same,"Neutrophils, absolute",Day 5,5904
same,Phosphorus,Day 5,5.2 mg/dL
same,Platelet count,Day 5,534 10^3/microl
same,Potassium,Day 5,4.8 mE/L
same,RBC,Day 5,5.9 10^6/microl
same,Sodium,Day 5,152 mE/L
same,T4,Day 5,1.4 µg/dL
same,Total Billirubin,Day 5,0.2 mg/dL
same,Total Protein,Day 5,6.2 g/dL
same,WBC,Day 5,14.4 10^3/microl
same,tCO2,Day 5,18 mEq/L
same,ALT (SGPT),Day 22,84 U/L
same,AST (SGOT),Day 22,13 U/L
same,Albumin,Day 22,3.3 g/dL
same,Albumin/Globulin Ratio,Day 22,1.2
same,Alkaline Phosphatase (ALP),Day 22,142 U/L
same,Amylase,Day 22,738 U/L
same,Anion Gap,Day 22,24
same,BUN,Day 22,17 mg/dL
same,BUN/Creatinine Ratio,Day 22,21.3
same,CPK,Day 22,96 U/L
same,Calcium,Day 22,10.8 mg/dL
same,Chloride,Day 22,113 mE/L
same,Cholesterol,Day 22,230 mg/dL
same,Creatinine,Day 22,0.8 mg/dL
same,Direct Billirubin,Day 22,0 mg/dL
same,"Eosinophils, (%)",Day 22,2%
same,"Eosinophils, absolute",Day 22,332
same,GGT,Day 22,3 U/L
same,Globulin,Day 22,2.8 g/dL
same,Glucose,Day 22,102 mg/dL
same,Hematocrit,Day 22,44.7%
same,Hemoglobin,Day 22,15.2 g/dL
same,Indirect Billirubin,Day 22,0.1 mg/dL
same,Lipase,Day 22,718 U/L
same,"Lymphocytes, (%)",Day 22,64%
same,"Lymphocytes, absolute",Day 22,10624
same,MCH,Day 22,24.3
same,MCHC,Day 22,34.1
same,MCV,Day 22,71
same,Na/K ratio,Day 22,26
same,"Neutrophils, (%)",Day 22,34%
same,"Neutrophils, absolute",Day 22,5644
same,Phosphorus,Day 22,3.6 mg/dL
same,Platelet count,Day 22,483 10^3/microl
same,Potassium,Day 22,5.7 mE/L
same,RBC,Day 22,6.26 10^6/microl
same,Sodium,Day 22,150 mE/L
same,T4,Day 22,1.8 µg/dL
same,Total Billirubin,Day 22,0.1 mg/dL
same,Total Protein,Day 22,6.1 g/dL
same,WBC,Day 22,16.6 10^3/microl
same,tCO2,Day 22,19 mEq/L
same,ALT (SGPT),Day 40,87 U/L
same,AST (SGOT),Day 40,20 U/L
same,Albumin,Day 40,3.4 g/dL
same,Albumin/Globulin Ratio,Day 40,1.1
same,Alkaline Phosphatase (ALP),Day 40,111 U/L
same,Anion Gap,Day 40,28
same,BUN,Day 40,22 mg/dL
same,BUN/Creatinine Ratio,Day 40,24.4
same,CPK,Day 40,124 U/L
same,Calcium,Day 40,11.0 mg/dL
same,Chloride,Day 40,110 mE/L
same,Cholesterol,Day 40,222 mg/dL
same,Creatinine,Day 40,0.9 mg/dL
same,Direct Billirubin,Day 40,0.1 mg/dL
same,"Eosinophils, (%)",Day 40,1%
same,"Eosinophils, absolute",Day 40,160
same,GGT,Day 40,2 U/L
same,Globulin,Day 40,3.0 g/dL
same,Glucose,Day 40,99 mg/dL
same,Hematocrit,Day 40,46.1%
same,Hemoglobin,Day 40,14.8 g/dL
same,Indirect Billirubin,Day 40,0 mg/dL
same,"Lymphocytes, (%)",Day 40,64%
same,"Lymphocytes, absolute",Day 40,10240
same,MCH,Day 40,23.7
same,MCHC,Day 40,32.2
same,MCV,Day 40,74
same,"Monocytes, (%)",Day 40,6%
same,"Monocytes, absolute",Day 40,960
same,Na/K ratio,Day 40,26
same,"Neutrophils, (%)",Day 40,29%
same,"Neutrophils, absolute",Day 40,4640
same,Phosphorus,Day 40,4.6 mg/dL
same,Platelet count,Day 40,511 10^3/microl
same,Potassium,Day 40,5.7 mE/L
same,RBC,Day 40,6.26 10^6/microl
same,Sodium,Day 40,151 mE/L
same,Total Billirubin,Day 40,0.1 mg/dL
same,Total Protein,Day 40,6.4 g/dL
same,WBC,Day 40,16 10^3/microl
same,tCO2,Day 40,19 mEq/L
same,ALT (SGPT),Day 65,111 U/L
same,AST (SGOT),Day 65,28 U/L
same,Albumin,Day 65,3.5 g/dL
same,Albumin/Globulin Ratio,Day 65,1.5
same,Alkaline Phosphatase (ALP),Day 65,78 U/L
same,Amylase,Day 65,431 U/L
same,Anion Gap,Day 65,27
same,BUN,Day 65,30 mg/dL
same,BUN/Creatinine Ratio,Day 65,30
same,CPK,Day 65,120 U/L
same,Calcium,Day 65,10.5 mg/dL
same,Chloride,Day 65,109 mE/L
same,Cholesterol,Day 65,169 mg/dL
same,Creatinine,Day 65,1.0 mg/dL
same,Direct Billirubin,Day 65,0.1 mg/dL
same,"Eosinophils, (%)",Day 65,1%
same,"Eosinophils, absolute",Day 65,211
same,GGT,Day 65,7 U/L
same,Globulin,Day 65,2.4 g/dL
same,Glucose,Day 65,94 mg/dL
same,Hematocrit,Day 65,44.6%
same,Hemoglobin,Day 65,14.3 g/dL
same,Indirect Billirubin,Day 65,0 mg/dL
same,Lipase,Day 65,449 U/L
same,"Lymphocytes, (%)",Day 65,61%
same,"Lymphocytes, absolute",Day 65,12871
same,MCH,Day 65,23.5
same,MCHC,Day 65,32.1
same,MCV,Day 65,73
same,Na/K ratio,Day 65,29
same,"Neutrophils, (%)",Day 65,38%
same,"Neutrophils, absolute",Day 65,8018
same,Phosphorus,Day 65,4.4 mg/dL
same,Platelet count,Day 65,404 10^3/microl
same,Potassium,Day 65,5.2 mE/L
same,RBC,Day 65,6.09 10^6/microl
same,Sodium,Day 65,150 mE/L
same,T4,Day 65,1.6 µg/dL
same,Total Billirubin,Day 65,0.1 mg/dL
same,Total Protein,Day 65,5.9 g/dL
same,WBC,Day 65,21.1 10^3/microl
same,tCO2,Day 65,19 mEq/L
same,ALT (SGPT),Day 103,95 U/L
same,AST (SGOT),Day 103,25 U/L
same,Albumin,Day 103,3.2 g/dL
same,Albumin/Globulin Ratio,Day 103,1.3
same,Alkaline Phosphatase (ALP),Day 103,58 U/L
same,Amylase,Day 103,745 U/L
same,Anion Gap,Day 103,27
same,BUN,Day 103,13 mg/dL
same,BUN/Creatinine Ratio,Day 103,16.3
same,CPK,Day 103,103 U/L
same,Calcium,Day 103,9.6 mg/dL
same,Chloride,Day 103,107 mE/L
same,Cholesterol,Day 103,146 mg/dL
same,Creatinine,Day 103,0.8 mg/dL
same,Direct Billirubin,Day 103,0.1 mg/dL
same,"Eosinophils, (%)",Day 103,1%
same,"Eosinophils, absolute",Day 103,165
same,GGT,Day 103,6 U/L
same,Globulin,Day 103,2.4 g/dL
same,Glucose,Day 103,107 mg/dL
same,Hematocrit,Day 103,40.7%
same,Hemoglobin,Day 103,13.4 g/dL
same,Indirect Billirubin,Day 103,0 mg/dL
same,Lipase,Day 103,630 U/L
same,"Lymphocytes, (%)",Day 103,71%
same,"Lymphocytes, absolute",Day 103,11715
same,MCH,Day 103,23.4
same,MCHC,Day 103,32.9
same,MCV,Day 103,71
same,"Monocytes, (%)",Day 103,7%
same,"Monocytes, absolute",Day 103,1155
same,Na/K ratio,Day 103,28
same,"Neutrophils, (%)",Day 103,20%
same,"Neutrophils, absolute",Day 103,3300
same,Phosphorus,Day 103,3.7 mg/dL
same,Platelet count,Day 103,409 10^3/microl
same,Potassium,Day 103,5.2 mE/L
same,RBC,Day 103,5.72 10^6/microl
same,Sodium,Day 103,148 mE/L
same,T4,Day 103,1.4 µg/dL
same,Total Billirubin,Day 103,0.1 mg/dL
same,Total Protein,Day 103,5.6 g/dL
same,WBC,Day 103,16.5 10^3/microl
same,tCO2,Day 103,19 mEq/L
same,ALT (SGPT),Day 128,89 U/L
same,AST (SGOT),Day 128,23 U/L
same,Albumin,Day 128,3.0 g/dL
same,Albumin/Globulin Ratio,Day 128,1.2
same,Alkaline Phosphatase (ALP),Day 128,45 U/L
same,Amylase,Day 128,633 U/L
same,Anion Gap,Day 128,22
same,BUN,Day 128,24 mg/dL
same,BUN/Creatinine Ratio,Day 128,30
same,CPK,Day 128,53 U/L
same,Calcium,Day 128,9.9 mg/dL
same,Chloride,Day 128,116 mE/L
same,Cholesterol,Day 128,133 mg/dL
same,Creatinine,Day 128,0.8 mg/dL
same,Direct Billirubin,Day 128,0.1 mg/dL
same,"Eosinophils, (%)",Day 128,2%
same,"Eosinophils, absolute",Day 128,330
same,GGT,Day 128,13 U/L
same,Globulin,Day 128,2.6 g/dL
same,Glucose,Day 128,116 mg/dL
same,Hematocrit,Day 128,38.1%
same,Hemoglobin,Day 128,12.3 g/dL
same,Indirect Billirubin,Day 128,0 mg/dL
same,Lipase,Day 128,415 U/L
same,"Lymphocytes, (%)",Day 128,46%
same,"Lymphocytes, absolute",Day 128,7774
same,MCH,Day 128,22.6
same,MCHC,Day 128,32.2
same,MCV,Day 128,70
same,"Monocytes, (%)",Day 128,5%
same,"Monocytes, absolute",Day 128,845
same,Na/K ratio,Day 128,31
same,"Neutrophils, (%)",Day 128,47%
same,"Neutrophils, absolute",Day 128,7943
same,Phosphorus,Day 128,3.1 mg/dL
same,Platelet count,Day 128,508 10^3/microl
same,Potassium,Day 128,4.8 mE/L
same,RBC,Day 128,5.44 10^6/microl
same,Sodium,Day 128,151 mE/L
same,T4,Day 128,1.1 µg/dL
same,Total Billirubin,Day 128,0.1 mg/dL
same,Total Protein,Day 128,5.6 g/dL
same,WBC,Day 128,16.9 10^3/microl
same,tCO2,Day 128,19 mEq/L
same,general condition,during the first treatment course,steady improvement
same,progression of the disease,"during the second treatment course, not to the degree of the first course",slowed down
